ChEMBL document CHEMBL5291721, “A preclinical secondary pharmacology resource illuminates target-adverse drug reaction associations of marketed drugs” (Nat Commun, 2023)

What was measured:
[1] = target: Beta-1 adrenergic receptor (Homo sapiens, UniProt P08588); format: functional
[2] = target: T1, 5-hydroxytryptamine receptor 3A (Homo sapiens, UniProt P46098); format: functional
T1 sequence (P46098 whole entry): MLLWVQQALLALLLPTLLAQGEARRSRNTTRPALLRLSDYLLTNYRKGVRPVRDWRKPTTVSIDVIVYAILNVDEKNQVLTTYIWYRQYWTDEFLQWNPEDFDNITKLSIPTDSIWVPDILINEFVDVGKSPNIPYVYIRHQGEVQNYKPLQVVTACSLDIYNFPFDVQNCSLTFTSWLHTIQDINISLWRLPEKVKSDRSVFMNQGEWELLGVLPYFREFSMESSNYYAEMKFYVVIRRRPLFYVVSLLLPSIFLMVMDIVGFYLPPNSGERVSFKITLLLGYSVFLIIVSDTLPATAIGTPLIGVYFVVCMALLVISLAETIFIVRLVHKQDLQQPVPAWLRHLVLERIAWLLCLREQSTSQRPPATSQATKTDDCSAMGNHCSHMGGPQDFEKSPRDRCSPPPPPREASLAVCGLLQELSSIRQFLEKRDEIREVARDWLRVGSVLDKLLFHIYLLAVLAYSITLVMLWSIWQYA

D(1A) dopamine receptor = D(1A) dopamine receptor (Homo sapiens, UniProt P21728); format: functional, cell-based
[3] = target: T2, Alpha-2B adrenergic receptor (Homo sapiens, UniProt P18089)
T2 sequence (P18089 whole entry): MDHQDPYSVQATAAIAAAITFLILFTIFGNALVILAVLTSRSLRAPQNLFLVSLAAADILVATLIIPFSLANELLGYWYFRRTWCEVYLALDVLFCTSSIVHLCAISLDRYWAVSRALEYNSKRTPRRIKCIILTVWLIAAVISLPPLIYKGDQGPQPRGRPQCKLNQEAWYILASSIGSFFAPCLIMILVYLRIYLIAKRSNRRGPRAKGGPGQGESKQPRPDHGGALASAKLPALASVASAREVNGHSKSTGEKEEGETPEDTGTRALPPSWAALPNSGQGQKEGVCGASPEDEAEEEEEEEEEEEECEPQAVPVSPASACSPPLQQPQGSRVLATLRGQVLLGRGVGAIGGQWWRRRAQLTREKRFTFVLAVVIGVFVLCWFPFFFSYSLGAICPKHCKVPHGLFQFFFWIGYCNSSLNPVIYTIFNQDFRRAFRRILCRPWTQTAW

Glucocorticoid receptor = target: T3, Glucocorticoid receptor (Homo sapiens, UniProt P04150)
T3 sequence (P04150 whole entry): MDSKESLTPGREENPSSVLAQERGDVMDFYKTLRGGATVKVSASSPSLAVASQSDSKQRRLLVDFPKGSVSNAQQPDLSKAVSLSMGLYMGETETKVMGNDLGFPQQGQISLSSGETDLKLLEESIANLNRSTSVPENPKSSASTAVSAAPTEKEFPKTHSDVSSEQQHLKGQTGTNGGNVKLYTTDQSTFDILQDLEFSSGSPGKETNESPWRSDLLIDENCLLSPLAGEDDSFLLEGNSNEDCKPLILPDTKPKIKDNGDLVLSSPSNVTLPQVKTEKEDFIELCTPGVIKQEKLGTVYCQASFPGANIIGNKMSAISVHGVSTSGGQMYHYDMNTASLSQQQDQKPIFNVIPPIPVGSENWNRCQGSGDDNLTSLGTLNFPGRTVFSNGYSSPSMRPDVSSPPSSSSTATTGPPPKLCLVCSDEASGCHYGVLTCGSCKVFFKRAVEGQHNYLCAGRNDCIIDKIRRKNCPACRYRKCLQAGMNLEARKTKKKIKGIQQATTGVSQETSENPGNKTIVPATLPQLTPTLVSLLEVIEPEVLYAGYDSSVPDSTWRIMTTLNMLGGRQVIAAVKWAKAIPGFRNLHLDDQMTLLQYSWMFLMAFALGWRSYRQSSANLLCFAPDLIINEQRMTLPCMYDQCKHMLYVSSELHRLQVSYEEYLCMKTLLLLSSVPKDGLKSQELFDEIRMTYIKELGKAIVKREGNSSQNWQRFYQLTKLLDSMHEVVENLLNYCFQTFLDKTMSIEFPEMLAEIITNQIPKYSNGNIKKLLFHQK

[4] = target: T4, Type-1 angiotensin II receptor (Homo sapiens, UniProt P30556)
T4 sequence (P30556 whole entry): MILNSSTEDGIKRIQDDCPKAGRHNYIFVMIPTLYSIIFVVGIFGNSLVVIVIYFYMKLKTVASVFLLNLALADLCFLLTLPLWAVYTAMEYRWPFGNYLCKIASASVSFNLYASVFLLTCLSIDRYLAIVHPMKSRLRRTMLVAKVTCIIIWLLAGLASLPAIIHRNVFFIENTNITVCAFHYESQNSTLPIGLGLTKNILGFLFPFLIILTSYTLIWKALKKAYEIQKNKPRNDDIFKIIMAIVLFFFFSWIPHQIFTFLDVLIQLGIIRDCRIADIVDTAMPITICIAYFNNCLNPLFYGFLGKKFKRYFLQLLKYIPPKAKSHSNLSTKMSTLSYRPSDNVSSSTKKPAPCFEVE

[5] = target: Gamma-aminobutyric acid receptor subunit alpha-1 (Rattus norvegicus, UniProt P62813); format: functional
[6] = target: T5, Alpha-2C adrenergic receptor (Homo sapiens, UniProt P18825); format: functional
T5 sequence (P18825 whole entry): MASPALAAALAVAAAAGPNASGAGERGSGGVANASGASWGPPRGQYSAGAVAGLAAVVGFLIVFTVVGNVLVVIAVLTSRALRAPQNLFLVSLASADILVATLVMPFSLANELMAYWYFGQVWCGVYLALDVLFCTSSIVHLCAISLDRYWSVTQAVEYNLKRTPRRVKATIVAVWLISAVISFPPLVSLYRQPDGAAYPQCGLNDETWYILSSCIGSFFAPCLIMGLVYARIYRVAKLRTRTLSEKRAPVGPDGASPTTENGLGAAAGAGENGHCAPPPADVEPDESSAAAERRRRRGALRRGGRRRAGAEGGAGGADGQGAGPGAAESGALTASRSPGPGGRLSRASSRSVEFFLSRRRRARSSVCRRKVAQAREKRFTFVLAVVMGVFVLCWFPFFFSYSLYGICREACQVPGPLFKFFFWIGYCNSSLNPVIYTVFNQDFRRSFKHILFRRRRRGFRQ

[7] = target: 5-hydroxytryptamine receptor 2A (Homo sapiens, UniProt P28223); format: functional, cell-based
Note: assay procedure not described here.

D(1A) dopamine receptor, sequence (P21728 whole entry): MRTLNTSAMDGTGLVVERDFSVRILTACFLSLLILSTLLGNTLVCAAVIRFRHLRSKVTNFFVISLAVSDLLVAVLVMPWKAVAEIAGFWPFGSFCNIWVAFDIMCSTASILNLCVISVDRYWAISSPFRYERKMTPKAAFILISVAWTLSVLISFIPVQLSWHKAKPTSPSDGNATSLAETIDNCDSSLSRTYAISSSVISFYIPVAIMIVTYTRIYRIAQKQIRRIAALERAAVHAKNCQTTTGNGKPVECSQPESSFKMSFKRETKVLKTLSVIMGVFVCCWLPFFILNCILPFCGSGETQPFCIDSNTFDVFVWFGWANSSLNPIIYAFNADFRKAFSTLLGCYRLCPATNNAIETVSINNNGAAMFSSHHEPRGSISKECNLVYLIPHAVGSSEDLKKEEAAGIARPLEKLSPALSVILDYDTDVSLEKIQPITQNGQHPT
Beta-1 adrenergic receptor, sequence (P08588 whole entry): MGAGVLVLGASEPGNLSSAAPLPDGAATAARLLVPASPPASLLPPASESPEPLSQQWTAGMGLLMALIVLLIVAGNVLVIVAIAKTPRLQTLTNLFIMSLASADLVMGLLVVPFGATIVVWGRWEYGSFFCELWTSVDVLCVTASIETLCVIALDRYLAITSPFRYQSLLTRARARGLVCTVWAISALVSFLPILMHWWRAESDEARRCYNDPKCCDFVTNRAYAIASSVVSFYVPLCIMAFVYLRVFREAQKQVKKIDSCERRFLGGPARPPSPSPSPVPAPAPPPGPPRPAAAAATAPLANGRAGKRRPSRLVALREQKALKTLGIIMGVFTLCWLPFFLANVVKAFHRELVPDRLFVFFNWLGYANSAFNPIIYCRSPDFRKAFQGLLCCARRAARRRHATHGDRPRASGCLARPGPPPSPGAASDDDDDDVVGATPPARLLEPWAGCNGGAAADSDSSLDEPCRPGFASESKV
Gamma-aminobutyric acid receptor subunit alpha-1, sequence (P62813 whole entry): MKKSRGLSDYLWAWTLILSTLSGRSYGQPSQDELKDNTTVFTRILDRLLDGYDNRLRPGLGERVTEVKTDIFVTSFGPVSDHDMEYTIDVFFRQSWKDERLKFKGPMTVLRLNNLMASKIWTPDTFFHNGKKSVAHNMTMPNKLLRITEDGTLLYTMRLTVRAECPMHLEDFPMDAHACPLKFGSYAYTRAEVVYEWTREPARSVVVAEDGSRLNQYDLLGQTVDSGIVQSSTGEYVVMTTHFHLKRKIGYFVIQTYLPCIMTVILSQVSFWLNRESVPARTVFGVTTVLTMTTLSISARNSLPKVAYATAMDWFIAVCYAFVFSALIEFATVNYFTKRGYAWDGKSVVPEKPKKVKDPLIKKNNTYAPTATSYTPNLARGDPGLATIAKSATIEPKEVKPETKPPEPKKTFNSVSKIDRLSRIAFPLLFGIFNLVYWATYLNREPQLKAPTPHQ
5-hydroxytryptamine receptor 2A, sequence (P28223 whole entry): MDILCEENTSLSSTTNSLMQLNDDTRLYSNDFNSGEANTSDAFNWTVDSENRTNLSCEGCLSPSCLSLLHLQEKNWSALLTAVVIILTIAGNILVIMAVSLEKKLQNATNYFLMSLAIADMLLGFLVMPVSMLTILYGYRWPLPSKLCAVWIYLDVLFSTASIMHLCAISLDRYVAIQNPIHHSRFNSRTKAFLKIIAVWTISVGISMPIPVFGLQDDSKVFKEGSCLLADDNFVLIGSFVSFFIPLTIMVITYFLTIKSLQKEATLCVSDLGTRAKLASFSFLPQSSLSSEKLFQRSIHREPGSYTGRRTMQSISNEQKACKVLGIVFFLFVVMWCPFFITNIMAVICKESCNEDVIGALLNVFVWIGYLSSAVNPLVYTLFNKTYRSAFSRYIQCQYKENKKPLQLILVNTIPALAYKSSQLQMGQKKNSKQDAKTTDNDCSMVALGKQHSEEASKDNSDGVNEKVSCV

| Molecule | AC50 [1] | AC50 [2] | AC50 (D(1A) dopamine receptor) | AC50 [3] | AC50 (Glucocorticoid receptor) | AC50 [4] | AC50 [5] | AC50 [6] | AC50 [7] |
| --- | --- | --- | --- | --- | --- | --- | --- | --- | --- |
| COc1ccc(C(=O)NCc2ccc(OCCN(C)C)cc2)cc1OC [ITOPRIDE] | > 30 µM | > 30 µM | > 30 µM | > 30 µM | > 30 µM | > 30 µM | > 30 µM | > 30 µM | > 30 µM |
| O=C(O)Cc1cn(-c2ccccc2)nc1-c1ccc(Cl)cc1 [LONAZOLAC] | > 30 µM | > 30 µM | > 30 µM | > 30 µM | > 30 µM | > 30 µM | > 30 µM | > 30 µM | > 30 µM |
| C#C[C@]1(O)CC[C@H]2[C@@H]3CCC4=CCCC[C@@H]4[C@H]3CC[C@@]21C [LYNESTRENOL] | > 30 µM | > 30 µM | > 30 µM | > 30 µM | > 30 µM | > 30 µM | > 30 µM | > 30 µM | > 30 µM |
| CC1=CC(=O)c2ccccc2C1=O [MENADIONE] | > 10 µM | > 30 µM | > 10 µM | > 10 µM | > 30 µM | > 10 µM | > 10 µM | > 30 µM | > 10 µM |
| C[C@H]1C[C@@H]2[C@H]([C@@H](O)C[C@@]3(C)[C@H]2CC[C@]3(O)C(=O)COC(=O)CCC(=O)O)[C@@]2(C)C=CC(=O)C=C12 [METHYLPREDNISOLONE HEMISUCCINATE] | > 30 µM | > 30 µM | > 30 µM | > 30 µM | 0.67 µM | > 30 µM | > 30 µM | > 30 µM | > 30 µM |
| CCCCC(C)(O)C/C=C/[C@H]1[C@H](O)CC(=O)[C@@H]1CCCCCCC(=O)OC (stereo partly drawn) [MISOPROSTOL] | > 30 µM | > 30 µM | > 30 µM | > 30 µM | > 30 µM | > 30 µM | > 30 µM | > 30 µM | > 30 µM |
| O=C(OCCN1CCOCC1)c1cccnc1Nc1cccc(C(F)(F)F)c1 [MORNIFLUMATE] | > 30 µM | > 30 µM | > 30 µM | > 30 µM | > 30 µM | > 30 µM | > 30 µM | > 30 µM | > 30 µM |
| CCCCCCC(C)(C)c1cc(O)c2c(c1)OC(C)(C)C1CCC(=O)CC21 (stereo not drawn) [NABILONE] | > 30 µM | > 30 µM | > 30 µM | > 30 µM | > 30 µM | > 30 µM | > 30 µM | > 30 µM | > 30 µM |
| CCCCCCCCOc1ccccc1C(=O)Nc1ccc(C(=O)OCC[N+](C)(CC)CC)cc1 [OTILONIUM BROMIDE] | 11 µM | > 30 µM | > 30 µM | 2.9 µM | 11 µM | 20 µM | > 30 µM | 8.2 µM | > 30 µM |
| CN1CCCN=C1COC(=O)C(O)(c1ccccc1)C1CCCCC1 (stereo not drawn) [OXYPHENCYCLIMINE] | > 10 µM | > 30 µM | > 10 µM | > 10 µM | > 10 µM | > 10 µM | > 10 µM | > 10 µM | > 10 µM |
| CN1CCC2=C(C1)C(c1ccccc1)c1ccccc12 (stereo not drawn) [PHENINDAMINE] | > 10 µM | 12 µM | > 10 µM | > 10 µM | > 30 µM | > 10 µM | > 10 µM | 12 µM | > 10 µM |
| CN1C(=O)CC(c2ccccc2)C1=O (stereo not drawn) [PHENSUXIMIDE] | > 10 µM | > 30 µM | > 10 µM | > 10 µM | > 10 µM | > 10 µM | > 10 µM | > 10 µM | > 10 µM |
| CC(Cc1ccccc1)NCCC(c1ccccc1)c1ccccc1 (stereo not drawn) [PRENYLAMINE] | 6.8 µM | > 30 µM | > 30 µM | 1.7 µM | > 30 µM | > 30 µM | > 10 µM | 2.3 µM | > 30 µM |
| CC(=O)NS(=O)(=O)c1ccc(N)cc1 [SULFACETAMIDE] | > 10 µM | > 30 µM | > 10 µM | > 10 µM | > 10 µM | > 10 µM | > 10 µM | > 10 µM | > 10 µM |
| Cc1c(Cl)cccc1Nc1ccccc1C(=O)O [TOLFENAMIC ACID] | > 30 µM | > 30 µM | > 30 µM | > 30 µM | > 30 µM | > 30 µM | > 30 µM | > 30 µM | > 30 µM |
| COc1ccc(C(=O)N2CCN(c3ccc4c(c3)CCC(=O)N4)CC2)cc1OC [VESNARINONE] | > 30 µM | > 30 µM | > 30 µM | > 30 µM | 8 µM | > 30 µM | > 30 µM | > 30 µM | > 30 µM |
| TOCOFERSOLAN | > 30 µM | > 30 µM | > 30 µM | > 30 µM | > 30 µM | > 30 µM | > 30 µM | > 30 µM | > 30 µM |
